This note sets out measurements from patent US5198419A, “Formulated medicines for enhancing the efficacy of beta-lactam antibiotics in prophylaxis and treatment against infectious disease due to pathogenic bacteria” (Immuno Japan Inc., priority 1989, dated 1993).

Experiment [1] relates to Staphylococcus aureus 209P. As to the kind of experiment: Example 9: time-schedule of lactoferrin administration and efficacy of amoxicillin. The experiment is classed as in vivo, mice, ddY. The method, then: (§1) For ED50 values, a range of amounts of antibiotics is given in the examples (e.g., penicillin G: 0.4, 0.2, 0.1, 0.05 mg/mouse). To calculate the ED50, groups of mice in the monotherapy groups and groups of mice in the combined therapy groups received the indicated amount of antibiotic (e.g., one group received 0.4 mg/mouse of penicillin G, one group received 0.2 mg/mouse of penicillin G, one group received 0.1 mg/mouse of penicillin G, one group received 0.05 mg/mouse of penicillin G).
The effect of time-schedule of lactoferrin administration on the potentiation of antibiotic efficacy was examined using an experimental model similar to Example 1. Male ddY mice (n=10), five weeks old, weighing an average of 21.9 g, were used in this experiment. On day 0 all the mice were intraperitoneally injected with 1.2×10^5 CFU/mouse of Staphylococcus aureus 209P. Amoxicillin ([…], 0.625 mg/mouse) was orally given one hour after the injection.

In the next experiment the test system is Str. epidermids FT. As to the kind of experiment: Example 10: experimental infection in mice, cefazolin with or without lactoferrin. The class given is in vivo. The conditions noted are these: for ED50: 1000 MLD i.p. The method, then:
as §1
(§2) The potentiation of antibiotic efficacy by lactoferrin was examined using an infection model similar to Example 1. The antibiotics and lactoferrin were administered immediately after the injection (see Table 8). […] Lactoferrin (0.4 mg/mouse) potentiates the efficacies of the four beta-lactam antibiotics used: penicillin G against Streptococcus pyogenes infection was potentiated by 4.6 fold, cefazolin against S. epidermidis by 3.1 fold, methicillin against Diplococcus pneumoniae by 3.7 fold, and cloxacillin against Pseudomonas aeruginosa by 3.0 fold. Therefore, lactoferrin potentiates the efficacy of beta-lactam antibiotics against diseases caused by both gram-positive and gram-negative pathogenic bacteria.

Experiment [2] has as its system Klebsiella pneumoniae strain 3K25. Nature of the experiment: Example 5: experimentally infected fed and fasted mice, cefpodoxime with or without native lactoferrin. The experiment is classed as in vivo, strain ICR. The method, then: as §1
Male mice, strain ICR, five weeks old, weighing an average of 21.6 g, were randomly allocated into sixteen groups (n =6). During the next 24 hours, eight groups were allowed free access to diet and water, while the other eight groups were fasted overnight. On the next day, all the mice were injected with 1.4×10^6 CFU/mouse of Klebsiella pneumoniae strain 3K25. The minimal lethal dose of this bacterium is […], and thus the injected dose was 1,000 times greater than the minimal lethal dose. Immediately after the injection, the fed groups were orally given cefpodoxime (10, 5, 2.5, and 1.25 mg/mouse) simultaneously with or without native lactoferrin (0.2 mg/mouse). The fasted groups also were orally given cefpodoxime (10, 5, 2.5, and 1.25 mg/mouse) simultaneously with or without native lactoferrin (0.2 mg/mouse).

Experiment [3] has the same test system. Nature of the experiment: Example 1: experimental infection in mice, cefpodoxime with or without native lactoferrin. The experiment is classed as in vivo, strain ICR. The protocol:
as §1
Sixty male mice, strain ICR, four weeks of age, body weight 19±1.0 g (mean±the standard deviation) were randomly divided into ten groups (n=6); the first group was assigned to the untreated control, the second group to the lactoferrin treated control group, the third through the sixth groups to the cephalosporin treated controls, and the seventh through the tenth groups to the combined treatment group of cephalosporin and lactoferrin. The mice were intraperitoneally injected with pneumobacillus, Klebsiella pneumoniae strain 3K25, 5×10^6 colony forming units (CFU) per mouse. The antibiotics used were orally active cephalosporin or cefpodoxime, and the bovine lactoferrin was the native one derived from cheese whey with 28.5% iron-saturation. One hour after the injection, the untreated control was orally given 0.2 ml of physiological saline, the second group orally given lactoferrin (0.4 mg/mouse), the third through the sixth groups were orally given cefpodoxime (10, 5, 2.5 and 1.25 mg/mouse) in 0.2 ml of physiological saline, the seventh through the tenth groups orally given the admixture of cefpodoxime (5, 2.5, 1.25, and 0.625 mg/mouse) together with lactoferrin (0.4 mg/mouse) in 0.2 ml of the saline. All the mice were housed in an animal room, allowed free access to commercial pellet diet and water, and observed for one week.

Experiment [4] has the same test system. As to the kind of experiment: Example 8: dose-response relationship of potentiation of cefpodoxime efficacy by oral lactoferrin. The class given is in vivo, mice, ddY. The protocol:
as §1
The dose-response relationship of the potentiation of the antibiotic efficacy by lactoferrin was determined using the same experimental infection system as described in Example 1. Male ddY mice, five weeks of age, weighing approximate 20.3 g, were randomly allocated into groups (n=10); the first group was assigned to the cefpodoxime control (5 mg/mouse). The mice were intraperitoneally injected with pneumobacillus, Klebsiella pneumoniae strain 3K25, 3×10^5 per mouse. One hour after the injection, the antibiotic cefpodoxime (1, 0.5, 0.25 and 0.125 mg/mouse) was orally given in 0.2 ml of physiological saline.

Experiment [5] shares this test system. Nature of the experiment: Example 2: experimental infection in mice, cefpodoxime with or without apolactoferrin. As to conditions: for ED50: p.o. 1 h after 5×10^5 CFU/mouse. The experiment is classed as in vivo, strain ICR. The protocol:
as §1
Sixty male mice, strain ICR, five weeks of age, weighing 19.3±1.1 g (mean body weight±the standard deviation) were randomly allocated into ten groups (n=6), and intraperitoneally injected with pneumobacilli, Klebsiella pneumoniae strain 3K25, 5×10^5 CFU/mouse. One hour after the injection, the first group was orally given 0.2 ml of physiological saline, the second group orally given iron free apolactoferrin (0.4 mg) in 0.2 ml of saline, the third through the sixth groups were orally given cefpodoxime (4, 2, 1, and 0.5 mg/mouse) in 0.2 ml saline, and the seventh through the tenth groups orally given the admixture of cefpodoxime (4, 2, 1, and 0.5 mg/mouse) and apolactoferrin (0.4 mg) in 0.2 ml of saline. Mice were fed ad libitum and observed for a week under the same conditions as described in Example 1.

In another experiment the test system is Escherichia coli #11. Nature of the experiment: Example 7: experimental infection in mice, cephalexin with or without native lactoferrin. The experiment is classed as in vivo, strain ddY. As to conditions: po, 168 h, 1.7 × 10^6 CFU/mouse. The method, then:
as §1
Male mice, strain ddY, five weeks old, were randomly allocated into groups (n=10), and were intraperitoneally injected with Proteus mirabilis GN79 (1.3×10^6 CFU/mouse) or with Escherichia coli #11 (1.7×10^6 CFU/mouse) or with Klebsiella pneumoniae 3K25 (1.5×10^6 CFU/mouse). The doses are 1,000 times greater than the minimum lethal dose. Immediately after the injection, the first eight groups were orally given ampicillin, the second eight groups were orally given cephalexin, and the third eight groups were orally given cefaclor, respectively, each simultaneously with or without native lactoferrin (1 mg/mouse) in 0.2 ml of distilled water (see Table 7). All the mice were fed ad libitum and observed for one week under the same conditions as described in Example 1.

For experiment [6], the system named is Pseudomonas aeruginosa E8. Nature of the experiment: Example 10: experimental infection in mice, cloxacillin with or without lactoferrin. The class given is in vivo. As to conditions: for ED50: 10 MLD i.p. The method, then: as §1, §2
In experiment [7] the test system is Diplococcus pneumoniae Ch. Nature of the experiment: Example 10: experimental infection in mice, methicillin with or without lactoferrin. The experiment is classed as in vivo. As to conditions: for ED50: 100 MLD i.p. The protocol: as §1, §2
Experiment [8] has as its system Streptococcus pyogenes #59. Nature of the experiment: Example 10: experimental infection in mice, penicillin G with or without lactoferrin. The experiment is classed as in vivo. The conditions noted are these: for ED50: 1000 MLD i.p. The protocol:
as §1, §2

Where [9] appears, read: cefazolin with lactoferrin (0.4 mg/mouse).
Setting [10] is: cloxacillin with lactoferrin (0.4 mg/mouse).
Setting [11] is: methicillin with lactoferrin (0.4 mg/mouse).
Setting [12] is: penicillin G with lactoferrin (0.4 mg/mouse).

Take `CC1(C)S[C@@H]2[C@H](NC(=O)[C@H](N)c3ccc(O)cc3)C(=O)N2[C@H]1C(=O)O` [amoxicillin]: the ED50 is 2.46 mg/mouse in experiment [1] (amoxicillin control, no lactoferrin); 0.78 mg/mouse in [1] (amoxicillin, lactoferrin (0.5 mg/mouse) dosed +3 (hr)); 2.48 mg/mouse in experiment [1] (amoxicillin, lactoferrin (0.5 mg/mouse) dosed +12 (hr)); 1.39 mg/mouse in experiment [1] (amoxicillin, lactoferrin (0.5 mg/mouse) dosed -1 (day)); 2.46 mg/mouse in [1] (amoxicillin, lactoferrin (0.5 mg/mouse) dosed -2 (day)); 2.46 mg/mouse in [1] (amoxicillin, lactoferrin (0.5 mg/mouse) dosed -3 (day)). Moreover, the ED50 in [1] (amoxicillin, lactoferrin (0.5 mg/mouse) dosed -5 (day)) is 2.14 mg/mouse; in [1] (amoxicillin, lactoferrin (0.5 mg/mouse) dosed -6 (hr)), 0.40 mg/mouse; in experiment [1] (amoxicillin, lactoferrin (0.5 mg/mouse) dosed -12 (hr)), 0.55 mg/mouse; in [1] (amoxicillin, lactoferrin (0.5 mg/mouse) dosed at 0), 0.40 mg/mouse.
In the case of `Cc1nnc(SCC2=C(C(=O)O)N3C(=O)[C@@H](NC(=O)Cn4cnnn4)[C@H]3SC2)s1` [cefazolin], in the experiment on Str. epidermids FT (cefazolin control), the ED50 stood at 0.152 mg/mouse. In the experiment with Str. epidermids FT (setting [9]), the “potentiation of efficacy by lactoferrin” value worked out at 3.1 fold and the ED50 is reported as 0.048 mg/mouse.
As for `COCC1=C(C(=O)O)N2C(=O)[C@@H](NC(=O)/C(=N\OC)c3csc(N)n3)[C@H]2SC1` [cefpodoxime], the ED50 in experiment [2] (fasted, cefpodoxime (antibiotic) alone) was 39.40 (27.15-56.15) mg/mouse; in experiment [2] (fasted, cefpodoxime admixture with lactoferrin (0.2 mg/mouse)), 7.80 (5.65-10.83) mg/mouse; in [2] (fed, cefpodoxime (antibiotic) alone) it was 15.65 (11.45-21.30) mg/mouse; in experiment [2] (fed, cefpodoxime admixture with lactoferrin (0.2 mg/mouse)) it was 4.90 (3.65-6.60) mg/mouse; in [3] (cefpodoxime alone, p.o. 1 h after i.p. injection of 5×10^6 CFU/mouse, 95% range not named (6.3-10.0 mg/mouse printed)) it was 7.93 mg/mouse; in experiment [3] (cefpodoxime with native lactoferrin (0.4 mg/mouse), p.o. 1 h after injection of 5×10^6 CFU/mouse, range 0.92-1.70 mg/mouse printed) it was 1.25 mg/mouse. Moreover, the ED50 in experiment [4] (cefpodoxime with lactoferrin 0.00 mg/mouse) was 0.473 mg/mouse; in experiment [4] (cefpodoxime with lactoferrin 0.005 mg/mouse), 0.382 mg/mouse; in experiment [4] (cefpodoxime with lactoferrin 0.05 mg/mouse), 0.104 mg/mouse; in experiment [4] (cefpodoxime with lactoferrin 0.5 mg/mouse), 0.104 mg/mouse; in [4] (cefpodoxime with lactoferrin 5.0 mg/mouse), 0.104 mg/mouse; in experiment [4] (cefpodoxime with lactoferrin 50.0 mg/mouse) it was 0.104 mg/mouse. Also, the ED50 is on record as 0.25 mg/mouse in [5] (cefpodoxime combined therapy with apolactoferrin (0.4 mg), range 0.19-0.33 mg printed) and 0.99 mg/mouse in [5] (cefpodoxime monotherapy, range 0.74-1.32 mg/mouse printed). For the same compound, the “life span versus untreated and lactoferrin controls” value is “significantly prolonged” in [3] (cefpodoxime treated group); “significantly prolonged” in experiment [3] (combined treatment groups of cefpodoxime and lactoferrin). The recovery of mice entry in [5] (cefpodoxime with apolactoferrin, combined therapy group) was “all the mice recovered”.
For the compound `CC1=C(C(=O)O)N2C(=O)[C@@H](NC(=O)[C@H](N)c3ccccc3)[C@H]2SC1` [cephalexin], the ED50 is 216 mg/kg in the experiment with Escherichia coli #11 (cephalexin alone) and 34.8 mg/kg in the experiment with Escherichia coli #11 (cephalexin with lactoferrin (1 mg/mouse)).
With `Cc1onc(-c2ccccc2Cl)c1C(=O)N[C@@H]1C(=O)N2[C@@H]1SC(C)(C)[C@@H]2C(=O)O` [cloxacillin], the figures for the ED50 in experiment [6] (cloxacillin control) and in [6] (setting [10]) were 3.16 mg/mouse and 1.06 mg/mouse, respectively. Further, the “potentiation of efficacy by lactoferrin” value in experiment [6] (setting [10]) was 3.0 fold.
For the compound `COc1cccc(OC)c1C(=O)N[C@@H]1C(=O)N2[C@@H]1SC(C)(C)[C@@H]2C(=O)O` [methicillin], the ED50 in experiment [7] (methicillin control) is given as 0.227 mg/mouse. Also, in experiment [7] (setting [11]), the “potentiation of efficacy by lactoferrin” value was 3.7 fold and the ED50 worked out at 0.061 mg/mouse.
`CC1(C)S[C@@H]2[C@H](NC(=O)Cc3ccccc3)C(=O)N2[C@H]1C(=O)O` [penicillin G]: in experiment [8] (penicillin G control), the ED50 is listed as 0.106 mg/mouse. Besides, in [8] (setting [12]), the “potentiation of efficacy by lactoferrin” value came to 4.6 fold and the ED50 is 0.023 mg/mouse.
